System: activated microglial cell
Assay: BH4 production in an activated microglial cell
Type: cell-based
Settings: activated microglial cell (FIG. 12)

Structure (SMILES): COc1cc2c(cc1O)CNCC2 [HMTIQ, 7-hydroxy-6-methoxy-1,2,3,4-tetrahydroisoquinoline]
- BH4 production: inhibitory effect
